For assay [1], the system named is human TAAR1 receptor. Also noted: method as in Bradaia et al., 2009. To be noted: ref Bradaia et al., 2009; cited from earlier work.
In assay [2] the target is mouse TAAR1. Also noted: method as in Bradaia et al., 2009. To be noted: ref Bradaia et al., 2009; read-out: affinity for the mouse TAAR1; cited from earlier work.
The subject of assay [3] is VTA dopamine neurons. Kind of assay: Electrophysiology: spontaneous firing of VTA dopamine neurons in slices. The class given is cell-based, C57Bl/6J mice. To be noted: 10 nM, bath applied 5 min; positive control. On the procedure:
All electrophysiological recordings were performed in slice preparations from C57Bl/6J mice (P21-P30). Briefly, mice were anaesthetized with isoflurane and transcardially perfused with an ice-cold sucrose solution containing (in mM): 50 sucrose, 26.2 NaHCO3, 1.25 glucose, 4.9 MgCl2, 3 kynurenic acid, 0.1 CaCl2, and 1.32 ascorbic acid in bicarbonate-buffered solution (aCSF, described below). Mice were then decapitated and brains were extracted. […] Cells were visualized on an upright microscope using “Dodt-type” gradient contrast infrared optics ([Dodt et al., 2002]) and whole-cell recordings were made using a MultiClamp 700B amplifier (Axon Instruments, Union City, CA, United States). Recording electrodes (3–5 MΩ) were filled with (in mM): 136 potassium-D-gluconate, 4 MgCl2, 1.1 HEPES, 5, EGTA, 10 sodium creatine phosphate, 3.4 Mg-ATP, and 0.1 Na2GTP. […] Spontaneous firing activity was recorded in current-clamp mode. […] Firing data for all neurons was analyzed with the MiniAnalysis program (Synaptosoft) using the same criteria. Drug-induced changes in firing are expressed as a percentage of baseline. Drug effects were calculated by comparing the response during the baseline/pre-drug period to the response 5 min after onset of drug administration. […] We therefore assessed the effects of compound 22 on firing rate of dopamine neurons. […]

SMILES strings stand for the structures.

Regarding `CCOc1cccc(NC(=O)c2ccc(N3CCCC3)c(C(F)(F)F)c2)c1` [EPPTB], the “binding to the human TAAR1 receptor” value in assay [1] is recorded as “does not bind”. The Ki in assay [2] is 900 pM. In assay [3], the “increase in firing of dopamine neurons” value is on record as 74%.

The values are drawn from PMC6131539, “Behavioral Effects of a Potential Novel TAAR1 Antagonist” (Frontiers in Pharmacology, 2018).
